Results on 27 compounds are retold here after US11590139B2, “Substituted aminopurine compounds, compositions thereof, and methods of treatment therewith” (Signal Pharmaceuticals, LLC, priority 2014, dated 2023).

Molecules are shown by their SMILES.

For the first test, the system named is Lox-IMVI melanoma cell line. In words: Lox-IMVI anti-proliferative assay (growth inhibition, Cell Titer-Glo). Format: cell-based, human. Conditions: Homo sapiens; IC50 activity level in the cell-based Lox-IMVI anti-proliferative assay; read-out: Activity. In a few lines: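 RPMI/10% FBS; cmpd 0.5 nM–10 μM, 3-fold ×10, duplicate, 0.2% DMSO final; 72 h, 37 °C, 5% CO2. ATP-luminescence readout at t0 and 72 h. IC50 = 50% of DMSO control, 4-parameter logistic fit.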
A general note: In ATP-based viability assays light output follows the ATP content of the culture.
Consider `CC(C)(C)OC(=O)N1CCC[C@@H](Nc2ncc3nc(Nc4c(F)cc(Cl)cc4F)n([C@H]4CC[C@@H](C(N)=O)CC4)c3n2)C1` [Example 162, (R)-tert-butyl 3-(9-((1s,4S)-4-carbamoylcyclohexyl)-8-(4-chloro-2,6-difluorophenylamino)-9H-purin-2-ylamino)piperidine-1-carboxylate], for which the IC50 was greater than 1000 nM.

As to `N#Cc1ccc(Nc2nc3cnc(NC4CCOCC4)nc3n2[C@H]2CC[C@@H](C(N)=O)CC2)c(Cl)c1` [Example 248, (1s,4s)-4-(8-(2-chloro-4-cyanophenylamino)-2-(tetrahydro-2H-pyran-4-ylamino)-9H-purin-9-yl)cyclohexanecarboxamide], the IC50 was in the range of 500 to 1000 nM.

Turning to `NC(=O)[C@H]1CC[C@@H](n2c(Nc3c(F)cc(F)cc3F)nc3cnc(N[C@@H]4CCC[C@H]4O)nc32)CC1` [Example 249, (1S,4s)-4-(2-((1R,2R)-2-hydroxycyclopentylamino)-8-(2,4,6-tnfluorophenylamino)-9H-purin-9-yl)cyclohexanecarboxamide], the IC50 is greater than 1000 nM.

As for `CC[C@@H](CO)Nc1ncc2nc(Nc3c(F)cc(F)cc3Cl)n([C@H]3CC[C@@H](C(N)=O)CC3)c2n1` [Example 147, (1R,4s)-4-(8-(2-chloro-4,6-difluorophenylamino)-2-((S)-1-hydroxybutan-2-ylamino)-9H-purin-9-yl)cyclohexanecarboxamide], the IC50 was greater than 1000 nM.

In the case of `NC(=O)[C@H]1CC[C@@H](n2c(Nc3c(F)cc(Cl)cc3F)nc3cnc(N[C@H]4C[C@@H](O)C4)nc32)CC1` [Example 322, (1s,4s)-4-(8-(4-chloro-2,6-difluorophenylamino)-2-((1s,3s)-3-hydroxycyclobutylamino)-9H-purin-9-yl)cyclohexanecarboxamide], the IC50 was greater than 1000 nM.

`NC(=O)[C@H]1CC[C@@H](n2c(Nc3cccc(Cl)c3F)nc3cnc(NC4COCC4O)nc32)CC1` (stereo partly drawn) [Example 192, (1s,4s)-4-(8-(3-chloro-2-fluorophenylamino)-2-(4-hydroxytetrahydrofuran-3-ylamino)-9H-purin-9-yl)cyclohexanecarboxamide]: the IC50 was greater than 1000 nM.

As to `NC(=O)[C@H]1CC[C@@H](n2c(Nc3c(Cl)cc(Cl)cc3Cl)nc3cnc(N[C@H]4C[C@@H](O)C4)nc32)CC1` [Example 323, (1s,4s)-4-(2-((1s,3s)-3-hydroxycyclobutylamino)-8-(2,4,6-trichlorophenylamino)-9H-purin-9-yl)cyclohexanecarboxamide], the IC50 was greater than 1000 nM.

For the compound `C[C@@H](CO)Nc1ncc2nc(Nc3ccc(Cl)cc3Cl)n([C@H]3CC[C@@H](C(N)=O)CC3)c2n1` [Example 170, (1R,4s)-4-(8-(2,4-dichlorophenylamino)-2-((S)-1-hydroxypropan-2-ylamino)-9H-purin-9-yl)cyclohexanecarboxamide], the IC50 is greater than 1000 nM.

As to `CC1(C)CC[C@@H](Nc2ncc3nc(Nc4c(Cl)cc(Cl)cc4Cl)n([C@H]4CC[C@@H](C(N)=O)CC4)c3n2)C[C@H]1O` [Example 387, (1S,4s)-4-(2-((1R,3R)-3-hydroxy-4,4-dimethylcyclohexylamino)-8-(2,4,6-tnchlorophenylarnino)-9H-purin-9-yl)cyclohexanecarboxamide], the IC50 is greater than 1000 nM.

Regarding `NC(=O)[C@H]1CC[C@@H](n2c(Nc3cc(Cl)ccc3F)nc3cnc(N[C@H]4COC[C@@H]4O)nc32)CC1` [Example 320, (1R,4s)-4-(8-(5-chloro-2-fluorophenylamino)-2-((3S,4R)-4-hydroxytetrahydrofuran-3-ylamino)-9H-purin-9-yl)cyclohexanecarboxamide], the IC50 was greater than 1000 nM.

As for `NC(=O)[C@H]1CC[C@@H](n2c(Nc3c(F)cc(Cl)cc3Cl)nc3cnc(NC4COCC4O)nc32)CC1` (stereo partly drawn) [Example 182, (1s,4s)-4-(8-(2,4-dichloro-6-fluorophenylamino)-2-(4-hydroxytetrahydrofuran-3-ylamino)-9H-purin-9-yl)cyclohexanecarboxamide], the IC50 was greater than 1000 nM.

With `Cc1ccc(Nc2nc3cnc(NC4CCOCC4)nc3n2[C@H]2CC[C@@H](C(N)=O)CC2)c(F)c1F` [Example 83, (1s,4s)-4-(8-(2,3-difluoro-4-methylphenylamino)-2-(tetrahydro-2H-pyran-4-ylamino)-9H-purin-9-yl)cyclohexanecarboxamide], the IC50 lay within 500 to 1000 nM.

For `NC(=O)[C@H]1CC[C@@H](n2c(Nc3c(F)cc(F)cc3F)nc3cnc(NC4CCOCC4)nc32)CC1` [Example 11], the IC50 was less than 250 nM.

On to `NC(=O)[C@H]1CC[C@@H](n2c(Nc3c(F)cccc3Cl)nc3cnc(N[C@@H]4CCC[C@H](O)C4)nc32)CC1` [Example 350, (1S,4s)-4-(8-(2-chloro-6-fluorophenylamino)-2-((1R,3S)-3-hydroxycyclohexylamino)-9H-purin-9-yl)cyclohexanecarboxamide], for which the IC50 fell in the range of 500 to 1000 nM.

Take `NC(=O)[C@H]1CC[C@@H](n2c(Nc3c(F)cc(Cl)cc3F)nc3cnc(N[C@@H]4CC[C@H](O)C4)nc32)CC1` [Example 328, (1S,4s)-4-(8-(4-chloro-2,6-difluorophenylamino)-2-((1R,3S)-3-hydroxycyclopentylamino)-9H-purin-9-yl)cyclohexanecarboxamide]: the IC50 was greater than 1000 nM.

The test is the same for the next values; noted with them: Homo sapiens; Lox-IMVI anti-proliferative assay, IC50 activity level; read-out: Activity.
As to `NC(=O)[C@H]1CC[C@@H](n2c(Nc3c(Cl)cc(F)cc3Cl)nc3cnc(NC4CCCOCC4)nc32)CC1` (stereo partly drawn) [Example 541, (1s,4s)-4-(8-(2,6-dichloro-4-fluorophenylamino)-2-(oxepan-4-ylamino)-9H-purin-9-yl)cyclohexanecarboxamide], the IC50 was in the range of 500 to 1000 nM.

Take `NC(=O)[C@H]1CC[C@@H](n2c(Nc3c(Cl)cc(Cl)cc3Cl)nc3cnc(N[C@@H]4CCCC[C@H]4O)nc32)CC1` [Example 468, (1S,4s)-4-(2-((1R,2R)-2-hydroxycyclohexylamino)-8-(2,4,6-trichlorophenylamino)-9H-purin-9-yl)cyclohexanecarboxamide]: the IC50 was greater than 1000 nM.

Consider `C[C@@H]1COCC[C@H]1Nc1ncc2nc(Nc3c(F)cc(F)cc3F)n([C@H]3CC[C@@H](C(N)=O)CC3)c2n1` [Example 533, (1S,4s)-4-(2-((3S,4R)-3-methyltetrahydro-2H-pyran-4-ylamino)-8-(2,4,6-trifluorophenylamino)-9H-purin-9-yl)cyclohexanecarboxamide], for which the IC50 was less than 250 nM.

Staying with this test, now noted: Homo sapiens; Lox-IMVI melanoma cell line, anti-proliferative assay; read-out: Activity (IC50 activity level).
On to `C[C@]1(C(N)=O)CC[C@@H](n2c(Nc3c(F)cc(C#N)cc3Cl)nc3cnc(NC4CCC4)nc32)CC1` [Example 600, (1s,4s)-4-(8-(2-chloro-4-cyano-6-fluorophenylamino)-2-(cyclobutylamino)-9H-purin-9-yl)-1-methylcyclohexanecarboxamide], for which the IC50 was less than 250 nM.

In the case of `N#Cc1cc(F)c(Nc2nc3cnc(NC4CCC(c5ncno5)CC4)nc3n2[C@H]2CC[C@@H](C(N)=O)CC2)c(Cl)c1` (stereo partly drawn) [Example 680, (1s,4s)-4-(2-(4-(1,2,4-oxadiazol-5-yl)cyclohexylamino)-8-(2-chloro-4-cyano-6-fluorophenylamino)-9H-purin-9-yl)cyclohexanecarboxamide], the IC50 is greater than 1000 nM.

For `NC(=O)[C@H]1CC[C@@H](n2c(Nc3c(F)cc(Cl)cc3Cl)nc3cnc(NC[C@@H]4CCCC[C@H]4O)nc32)CC1` [Example 662, (1R,4s)-4-(8-(2,4-dichloro-6-fluorophenylamino)-2-(((1S,2R)-2-hydroxycyclohexyl)methylamino)-9H-purin-9-yl)cyclohexanecarboxamide], the IC50 was greater than 1000 nM.

With `CC(C)OC(=O)N1CCC[C@@H](Nc2ncc3nc(Nc4c(F)cc(C#N)cc4F)n([C@H]4CC[C@@H](C(N)=O)CC4)c3n2)C1` [Example 771, (R)-isopropyl 3-(9-((1s,4S)-4-carbamoylcyclohexyl)-8-(4-cyano-2,6-difluorophenylamino)-9H-purin-2-ylamino)piperidine-1-carboxylate], the IC50 is greater than 1000 nM.

`C[C@]1(C(N)=O)CC[C@@H](n2c(Nc3c(Cl)cc(Cl)cc3Cl)nc3cnc(N[C@H]4CC[C@H](O)C4)nc32)CC1` [Example 645, (1R,4s)-4-(2-((1S,3S)-3-hydroxycyclopentylamino)-8-(2,4,6-trichlorophenylamino)-9H-purin-9-yl)-1-methylcyclohexanecarboxamide]: the IC50 was 500 to 1000 nM.

With `NC(=O)[C@H]1CC[C@@H](n2c(Nc3c(F)cc(Cl)cc3F)nc3cnc(N[C@@H]4CCCN(C(=O)Nc5ccccc5)C4)nc32)CC1` [Example 782, (R)-3-(9-((1s,4S)-4-carbamoylcyclohexyl)-8-(4-chloro-2,6-difluorophenylamino)-9H-purin-2-ylamino)-N-phenylpiperidine-1-carboxamide], the IC50 was greater than 1000 nM.

With `Cc1ccc(S(=O)(=O)N2CCC[C@@H](Nc3ncc4nc(Nc5c(Cl)cc(Cl)cc5Cl)n([C@H]5CC[C@@H](C(N)=O)CC5)c4n3)C2)cc1` [Example 788, (1S,4s)-4-(2-((R)-1-tosylpiperidin-3-ylamino)-8-(2,4,6-trichlorophenylamino)-9H-purin-9-yl)cyclohexanecarboxamide], the IC50 was greater than 1000 nM.

In the case of `N#Cc1cc(F)c(Nc2nc3cnc(N[C@@H]4CCCN(c5ccccc5)C4)nc3n2[C@H]2CC[C@@H](C(N)=O)CC2)c(Cl)c1` [Example 750, (1S,4s)-4-(8-(2-chloro-4-cyano-6-fluorophenylamino)-2-((R)-1-phenylpiperidin-3-ylamino)-9H-purin-9-yl)cyclohexanecarboxamide], the IC50 was greater than 1000 nM.

Regarding `NC(=O)[C@H]1CC[C@@H](n2c(Nc3c(F)cc(Cl)cc3F)nc3cnc(N[C@@H]4CCOC[C@H]4F)nc32)CC1` [Example 671, (1S,4s)-4-(8-(4-chloro-2,6-difluorophenylamino)-2-((3S,4R)-3-fluorotetrahydro-2H-pyran-4-ylamino)-9H-purin-9-yl)cyclohexanecarboxamide], the IC50 is less than 250 nM.
